Source: patent publication US8183239B2, “Substituted piperazines and piperidines as modulators of the neuropeptide Y2 receptor” (Janssen Pharmaceutica NV, priority 2005, dated 2012)

Target: T1, Y2 receptors (Homo sapiens, UniProt P49146)
T1 construct: endogenous in cells; host or cells: KAN-Ts cells (membranes)
T1 sequence (P49146 1-381): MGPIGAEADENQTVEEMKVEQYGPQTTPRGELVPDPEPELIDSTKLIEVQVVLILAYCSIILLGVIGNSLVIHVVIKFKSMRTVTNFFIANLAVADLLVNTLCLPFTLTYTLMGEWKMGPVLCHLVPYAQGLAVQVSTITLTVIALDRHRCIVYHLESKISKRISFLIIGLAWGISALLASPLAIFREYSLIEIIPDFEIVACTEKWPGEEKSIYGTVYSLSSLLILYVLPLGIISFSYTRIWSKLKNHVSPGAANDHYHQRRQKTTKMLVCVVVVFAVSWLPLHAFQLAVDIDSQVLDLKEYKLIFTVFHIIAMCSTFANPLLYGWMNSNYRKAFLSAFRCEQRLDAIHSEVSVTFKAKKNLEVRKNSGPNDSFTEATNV
Assay: Radioligand binding assay ([125I]PYY, KAN-Ts cell membranes)
Conditions: Table 2, [125I]PYY 80 pM, average of results, read-out: IC50
In short: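 IC50 values are means of three to eight experiments run in duplicate, fitted sigmoidally against specific binding (defined by […]). Competition used 80 pM [^125I]PYY for 1 h at room temperature on KAN-Ts membranes carrying native Y2, with filtration and scintillation counting.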

Compound | IC50 [nM]
CCN(CC)C(=O)C(c1ccccc1)N1CCN(c2ccc(NC(=O)C3CCCC3)cc2C#N)CC1 (centres unmarked) [Example 221, Cyclopentanecarboxylic acid {3-cyano-4-[4-(diethylcarbamoyl-phenyl-methyl)-piperazin-1-yl]-phenyl}-amide] | 48
CCN(CC)C(=O)C(c1ccccc1)C1CCN(c2ccc(NC(=O)C3CCC3)cc2F)CC1 (centres unmarked) [Example 222, Cyclobutanecarboxylic acid {4-[4-(diethylcarbamoyl-phenyl-methyl)-piperidin-1-yl]-3-fluoro-phenyl}-amide] | 63
CCC(CC)C(=O)Nc1ccc(N2CCN(C(C(=O)N(CC)CC)c3ccccc3)CC2)c(Br)c1 (centres unmarked) [Example 223, N-{3-Bromo-4-[4-(diethylcarbamoyl-phenyl-methyl)-piperazin-1-yl]-phenyl}-2-ethyl-butyramide] | 80
CCN(CC)C(=O)C(c1ccccc1)N1CCN(c2ccc(NC(=O)C3CCCC3)c(F)c2C#N)CC1 (centres unmarked) [Example 224, Cyclopentanecarboxylic acid {3-cyano-4-[4-(diethylcarbamoyl-phenyl-methyl)-piperazin-1-yl]-2-fluoro-phenyl}-amide] | 92
CCC(CC)C(=O)Nc1cc(F)c(N2CCN(C(C(=O)N(CC)CC)c3ccccc3)CC2)cc1F (centres unmarked) [Example 225, N-{4-[4-(Diethylcarbamoyl-phenyl-methyl)-piperazin-1-yl]-2,5-difluoro-phenyl}-2-ethyl-butyramide] | 107
CCC(CC)C(=O)Nc1cc(F)c(N2CCN(C(C(=O)N(CC)CC)c3ccccc3)CC2)c(F)c1 (centres unmarked) [Example 226, N-{4-[4-(Diethylcarbamoyl-phenyl-methyl)-piperazin-1-yl]-3,5-difluoro-phenyl}-2-ethyl-butyramide] | 95
CCC(CC)C(=O)Nc1ccc(N2CCN(C(C(=O)N(CC)CC)c3ccccc3)CC2)c(C#N)c1F (centres unmarked) [Example 227, N-{3-Cyano-4-[4-(diethylcarbamoyl-phenyl-methyl)-piperazin-1-yl]-2-fluoro-phenyl}-2-ethyl-butyramide] | 116
CCN(CC)C(=O)C(c1ccccc1)N1CCN(c2ccc(NC(=O)C3CC4CCC3C4)cc2F)CC1 (centres unmarked) [Example 228, Bicyclo[2.2.1]heptane-2-carboxylic acid {4-[4-(diethylcarbamoyl-phenyl-methyl)-piperazin-1-yl]-3-fluoro-phenyl}-amide] | 120
CCN(CC)C(=O)C(c1ccccc1)C1CCN(c2ccc(NC(=O)C3CC3)cc2F)CC1 (centres unmarked) [Example 229, Cyclopropanecarboxylic acid {4-[4-(diethylcarbamoyl-phenyl-methyl)-piperidin-1-yl]-3-fluoro-phenyl}-amide] | 120
CCN(CC)C(=O)C(c1ccccc1)N1CCN(c2c(F)cc(NC(=O)C3CCCC3)cc2F)CC1 (centres unmarked) [Example 230, Cyclopentanecarboxylic acid {4-[4-(diethylcarbamoyl-phenyl-methyl)-piperazin-1-yl]-3,5-difluoro-phenyl}-amide] | 150
CCN(CC)C(=O)C(c1ccccc1)N1CCN(c2ccc(NC(=O)C3CCCC3)cc2C)CC1 (centres unmarked) [Example 231, Cyclopentanecarboxylic acid {4-[4-(diethylcarbamoyl-phenyl-methyl)-piperazin-1-yl]-3-methyl-phenyl}-amide] | 200
CCC(CC)C(=O)Nc1ccc(N2CCN(C(C(=O)N(CC)CC)c3ccccc3)CC2)c(C)c1 (centres unmarked) [Example 232, N-{4-[4-(Diethylcarbamoyl-phenyl-methyl)-piperazin-1-yl]-3-methyl-phenyl}-2-ethyl-butyramide] | 210
CCC(CC)C(=O)Nc1ccc(N2CCN(C(C(=O)N(CC)CC)c3ccccc3)CC2)c(F)c1F (centres unmarked) [Example 233, N-{4-[4-(Diethylcarbamoyl-phenyl-methyl)-piperazin-1-yl]-2,3-difluoro-phenyl}-2-ethyl-butyramide] | 270
CCC(CC)C(=O)Nc1ccc(N2CCC(C(C#N)c3ccccc3)CC2)c(F)c1 (centres unmarked) [Example 234, N-{4-[4-(Cyano-phenyl-methyl)-piperidin-1-yl]-3-fluoro-phenyl}-2-ethyl-butyramide] | 280
CCNC(=O)C(c1ccccc1)N1CCN(c2c(F)cc(NC(=O)[C@@H]3CCOC3)cc2F)CC1 (stereo partly drawn) [Example 236, (R)-Tetrahydro-furan-3-carboxylic acid {4-[4-(ethylcarbamoyl-phenyl-methyl)-piperazin-1-yl]-3,5-difluoro-phenyl}-amide] | 900
CCC(CC)C(=O)Nc1ccc(N2CCN(C(C(=O)N(CC)CC)c3ccccc3)CC2)cc1C#N (centres unmarked) [Example 237, N-{2-Cyano-4-[4-(diethylcarbamoyl-phenyl-methyl)-piperazin-1-yl]-phenyl}-2-ethyl-butyramide] | 1100
CCN(CC)C(=O)C(c1ccccc1)N1CCN(c2ccc(NC(=O)C3CCCC3)cc2OC)CC1 (centres unmarked) [Example 238, Cyclopentanecarboxylic acid {4-[4-(diethylcarbamoyl-phenyl-methyl)-piperazin-1-yl]-3-methoxy-phenyl}-amide] | 1300
CCN(CC)C(=O)C(c1ccccc1)N1CCN(c2ccc(NC(=O)CC3CC3)cc2F)CC1 (centres unmarked) [Example 241, 2-{4-[4-(2-Cyclopropyl-acetylamino)-2-fluoro-phenyl]-piperazin-1-yl}-N,N-diethyl-2-phenyl-acetamide] | 300
CCN(CC)C(=O)C(c1ccccc1)N1CCN(c2ccc(NC(=O)CC3CCCC3)cc2F)CC1 (centres unmarked) [Example 242, 2-{4-[4-(2-Cyclopentyl-acetylamino)-2-fluoro-phenyl]-piperazin-1-yl}-N,N-diethyl-2-phenyl-acetamide] | 3000
CCN(CC)C(=O)C(c1ccccc1)N1CCN(c2ccc(NC(=O)C3CCCC3)cc2F)CC1 (centres unmarked) [Example 244, Cyclopentanecarboxylic acid {4-[4-(diethylcarbamoyl-phenyl-methyl)-piperazin-1-yl]-3-fluoro-phenyl}-amide] | 80
CCC(CC)C(=O)Nc1ccc(N2CCN(C(C(=O)N(CC)CC)c3ccc(OC)cc3)CC2)c(F)c1 (centres unmarked) [Example 251, N-(4-{4-[Diethylcarbamoyl-(4-methoxy-phenyl)-methyl]-piperazin-1-yl}-3-fluoro-phenyl)-2-ethyl-butyramide] | 18

Now from value to molecule:

IC50 [nM] | Compound
2500 | CCNC(=O)C(c1ccccc1)N1CCN(c2c(F)cc(NC(=O)C3CCCC3)cc2F)CC1 (centres unmarked) [Example 239, Cyclopentanecarboxylic acid {4-[4-(ethylcarbamoyl-phenyl-methyl)-piperazin-1-yl]-3,5-difluoro-phenyl}-amide]
18 | C#Cc1cc(NC(=O)C(CC)CC)ccc1N1CCN(C(C(=O)N(CC)CC)c2ccccc2)CC1 (centres unmarked) [Example 240, N-{4-[4-(Diethylcarbamoyl-phenyl-methyl)-piperazin-1-yl]-3-ethynyl-phenyl}-2-ethyl-butyramide]
120 | CCN(CC)C(=O)C(c1ccccc1)N1CCN(c2ccc(NC(=O)C3CC3C)cc2F)CC1 (centres unmarked) [Example 243, 2-Methyl-cyclopropanecarboxylic acid {4-[4-(diethylcarbamoyl-phenyl-methyl)-piperazin-1-yl]-3-fluoro-phenyl}-amide]
3000 | CCC(CC)NC(=O)c1ccc(N2CCN(C(C(=O)N(CC)CC)c3ccccc3)CC2)c(F)c1 (centres unmarked) [Example 245, 4-[4-(Diethylcarbamoyl-phenyl-methyl)-piperazin-1-yl]-N-(1-ethyl-propyl)-3-fluoro-benzamide]
2200 | CCN(CC)C(=O)C(c1ccccc1)N1CCN(c2ccc(CNC(=O)C(C)CC(F)(F)F)cc2F)CC1 (centres unmarked) [Example 246, N-{4-[4-(Diethylcarbamoyl-phenyl-methyl)-piperazin-1-yl]-3-fluoro-benzyl}-4,4,4-trifluoro-2-methyl-butyramide]
≥ 10000 | CCN(CC)C(=O)C(c1ccccc1)N1CCN(c2ccc(CNC(=O)[C@H]3CCOC3)cc2F)CC1 (stereo partly drawn) [Example 247, (S)-Tetrahydro-furan-3-carboxylic acid 4-[4-(diethylcarbamoyl-phenyl-methyl)-piperazin-1-yl]-3-fluoro-benzylamide]
13 | CCC(CC)C(=O)Nc1ccc(N2CCC([C@@H](C(=O)N(CC)CC)c3ccccc3)CC2)c(F)c1 [Example 248, (R)-(−)-N-{4-[4-(Diethylcarbamoyl-phenyl-methyl)-piperidin-1-yl]-3-fluoro-phenyl}-2-ethyl-butyramide]
100 | CCC(CC)C(=O)Nc1ccc(N2CCC([C@H](C(=O)N(CC)CC)c3ccccc3)CC2)c(F)c1 [Example 249, (S)—(+)-N-{4-[4-(Diethylcarbamoyl-phenyl-methyl)-piperidin-1-yl]-3-fluoro-phenyl}-2-ethyl-butyramide]
9 | CCC(CC)C(=O)Nc1ccc(N2CCN(C(C(=O)N(CC)CC)c3ccc(OC)cc3)CC2)c(C#N)c1 (centres unmarked) [Example 250, N-(3-Cyano-4-{4-[diethylcarbamoyl-(4-methoxy-phenyl)-methyl]-piperazin-1-yl}-phenyl)-2-ethyl-butyramide]
104 | CCC(CC)C(=O)Nc1ccc(N2CCN(C(C(=O)N(CC)CC)c3ccc(O)cc3)CC2)c(F)c1 (centres unmarked) [Example 252, N-(4-{4-[Diethylcarbamoyl-(4-hydroxy-phenyl)-methyl]-piperazin-1-yl}-3-fluoro-phenyl)-2-ethyl-butyramide]
102 | CCC(CC)C(=O)Nc1ccc(N2CCN(C(C(=O)N(CC)CC)c3ccc(Cl)cc3)CC2)c(F)c1 (centres unmarked) [Example 253, N-(4-{4-[(4-Chloro-phenyl)-diethylcarbamoyl-methyl]-piperazin-1-yl}-3-fluoro-phenyl)-2-ethyl-butyramide]
